We go through 16 compounds from ChEMBL document CHEMBL5316319, “Targeting Death-Associated Protein Kinases for Treatment of Human Diseases: Recent Advances and Future Directions” (J Med Chem, 2023).

Assay [1] concerns the target T1, Death-associated protein kinase 1 (Homo sapiens, UniProt P53355). The experiment in a line: Inhibition of DAPK1 (unknown origin) in presence of 33P-ATP radiolabeled kinase assay.
Assay [2] concerns the target T1, Death-associated protein kinase 1. The experiment in a line: Inhibition of DAPK1 (unknown origin).
The target of assay [3] is T2, Serine/threonine-protein kinase 17A (Homo sapiens, UniProt Q9UEE5).
T2 sequence (Q9UEE5 whole entry): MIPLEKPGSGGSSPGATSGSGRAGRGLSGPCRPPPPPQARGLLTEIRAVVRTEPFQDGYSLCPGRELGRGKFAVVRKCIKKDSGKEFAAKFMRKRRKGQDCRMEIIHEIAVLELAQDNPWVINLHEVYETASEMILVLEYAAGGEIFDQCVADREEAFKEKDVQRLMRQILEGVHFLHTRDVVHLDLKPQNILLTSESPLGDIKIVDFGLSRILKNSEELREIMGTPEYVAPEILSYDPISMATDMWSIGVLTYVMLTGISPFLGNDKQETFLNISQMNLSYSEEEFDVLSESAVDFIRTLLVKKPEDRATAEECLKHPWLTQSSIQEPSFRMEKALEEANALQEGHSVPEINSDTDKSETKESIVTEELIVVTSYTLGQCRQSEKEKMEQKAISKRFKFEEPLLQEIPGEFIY
The experiment in a line: Inhibition of DRAK1 (unknown origin).

Assay [4] deals with T3, Serine/threonine-protein kinase 17B (Homo sapiens, UniProt O94768).
T3 sequence (O94768 whole entry): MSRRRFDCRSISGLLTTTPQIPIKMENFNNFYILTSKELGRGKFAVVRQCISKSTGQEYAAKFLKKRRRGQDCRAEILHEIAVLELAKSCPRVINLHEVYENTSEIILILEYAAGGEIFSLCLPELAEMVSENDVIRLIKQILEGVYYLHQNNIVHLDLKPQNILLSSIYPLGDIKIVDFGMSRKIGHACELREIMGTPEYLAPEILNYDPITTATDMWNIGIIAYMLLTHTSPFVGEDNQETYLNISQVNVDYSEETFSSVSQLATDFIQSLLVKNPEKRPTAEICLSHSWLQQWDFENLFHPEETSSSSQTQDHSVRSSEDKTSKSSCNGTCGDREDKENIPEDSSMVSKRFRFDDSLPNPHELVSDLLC
Briefly: Inhibition of DRAK2 (unknown origin).

For assay [5], the target named is T4, Death-associated protein kinase 3 (Homo sapiens, UniProt O43293). The experiment in a line: Inhibition of DAPK3 (unknown origin).
Assay [6] addresses T5, Serine/threonine-protein kinase pim-3 (Homo sapiens, UniProt Q86V86). The experiment in a line: Inhibition of PIM3 (unknown origin) at 10 uM by (33P-ATP) filter-binding assay relative to control.
The target of assay [7] is T1, Death-associated protein kinase 1. The experiment in a line: Inhibition of DAPK1 (unknown origin) at 10 uM by (33P-ATP) filter-binding assay relative to control.
The target in assay [8] is Death-associated protein kinase 2 (Homo sapiens, UniProt Q9UIK4). Briefly: Binding affinity to DAPK2 (unknown origin) assessed as dissociation constant.
The target of assay [9] is T4, Death-associated protein kinase 3. Briefly: Binding affinity to DAPK3 (unknown origin) assessed as dissociation constant.
The target is the same in assay [10]. Briefly: Inhibition of human recombinant GST-fused DAPK3 (1 to 320 residues) expressed in Escherichia coli BL21 (DE3) assessed as inhibition constant using MYPT1 as peptide substrate incubated for 10 mins in presence of [gamma-32P]ATP by radiometric scintillation assay.
Assay [11] deals with Serine/threonine-protein kinase pim-1 (Homo sapiens, UniProt P11309). The experiment in a line: Inhibition of human full length-His6 tagged PIM1 (1 to 312 residues) expressed in Escherichia coli BL21 (DE3) assessed as inhibition constant using RSRHSSYPAGT as peptide substrate incubated for 10 mins in presence of [gamma-32P]ATP by radiometric scintillation assay.
Assay [12] has as its target Serine/threonine-protein kinase pim-2 (Homo sapiens, UniProt Q9P1W9). Briefly: Inhibition of human full length-His6 tagged PIM2 (1 to 311 residues) expressed in Escherichia coli BL21 (DE3) assessed as inhibition constant using RSRHSSYPAGT as peptide substrate incubated for 10 mins in presence of [gamma-32P]ATP by radiometric scintillation assay.
Assay [13] deals with T5, Serine/threonine-protein kinase pim-3. Briefly: Inhibition of human full length-His6 tagged PIM3 (1 to 326 residues) expressed in Escherichia coli BL21 (DE3) assessed as inhibition constant using RSRHSSYPAGT as peptide substrate incubated for 10 mins in presence of [gamma-32P]ATP by radiometric scintillation assay.
Assay [14] addresses T1, Death-associated protein kinase 1. Briefly: Inhibition of DAPK1 (1 to 285 residues) (unknown origin) expressed in Escherichia coli using KKLNRTLSFAEPG as substrate in presence of ATP by fluoro-spark kinase assay.
Assay [15] addresses T3, Serine/threonine-protein kinase 17B. The experiment in a line: Binding affinity to DRAK2 (unknown origin) assessed as dissociation constant.
Assay [16] has the same target. Briefly: Inhibition of recombinant GST-tagged DRAK2 (unknown origin) by promega ADP-Glo assay.

Structures are written as SMILES. Some results are limits rather than exact numbers.

Turning to `Cc1nc2c(OCc3ccccc3)ncnc2n1C(C)C`, the IC50 in [1] amounted to 23 µM.
Turning to `COc1cnc(Nc2ccc(CS(C)(=O)=O)cc2)nc1Nc1cc(C2CC2)[nH]n1`, the IC50 in [2] turned out to be 370 nM; in assay [3], 100 nM; in assay [4], 10 nM; in assay [5] it was 310 nM.
For the compound `CC(C)(C)n1c(-c2ccccc2)nc2c(OCc3ccccc3)ncnc21`, the IC50 in [1] was 2.5 µM.
Take `CC(Sc1nc2c(cnn2-c2cccc(Cl)c2)c(=O)[nH]1)C(N)=O` (stereo not given): the inhibition in assay [6] was found to be 76%; in assay [7], 89%. Besides, the Kd in assay [8] was 79 nM; in assay [9] it was 280 nM. For the same compound, the Ki is 260 nM in assay [10], 2.94 µM in [11], 0.208 µM in assay [12] and greater than 100000 nM in [13].
With `c1ccc(COc2ncnc3c2ncn3Cc2ccccc2)cc1`, the IC50 in [1] is 5.9 µM.
Regarding `O=C1c2ccccc2C(=O)c2c1ccc(O)c2O` [ATHRAQUINONES A], in assay [14], the IC50 is 3.6 µM.
`CCC(Sc1nc2c(cnn2-c2cccc(F)c2)c(=O)[nH]1)C(N)=O` (stereo not given): the Ki in assay [10] is 119 nM; in assay [11], 6.48 µM; in assay [12], greater than 100 µM; in assay [13], 1070 nM.
For `CC(C)(Sc1nc2c(cnn2-c2ccccc2)c(=O)[nH]1)C(N)=O`, in that order: 126 nM, 6.31 µM, greater than 100 µM and 2500 nM.
Turning to `Nc1c(-c2n[nH]c(=S)o2)sc2ccc(Cl)cc12`, the Kd in assay [15] was 250 nM.
On to `Nc1c(O)c(S(=O)(=O)O)c(O)c2c1C(=O)c1ccccc1C2=O`, for which, in assay [14], the IC50 turned out to be 9.6 µM.
For `COC(=O)C1=C2Nc3ccccc3C23CC2N(C)[C@H]3C[C@H]1[C@@]2(C)C(C)=O` (stereo not given in full), the IC50 in [16] came to 11.6 µM.
On to `O=C1c2ccccc2C(=O)c2c(O)c(O)cc(O)c21` [PURPURIN], for which the IC50 in [14] came to 0.89 µM.
Compound `COc1cc(-c2ccc3ncc(-c4ccc(C(=O)NCCN(C)C)cc4)n3n2)ccc1O` displayed an IC50 in assay [2] of 247 nM.
Regarding `N#CCSc1nc2c(cnn2-c2cccc(Cl)c2)c(=O)[nH]1`, the inhibition constant Ki was found to be 315 nM in [10], 1.48 µM in [11], 17.3 µM in [12] and 72 nM in [13].
`CCc1ccccc1-c1nn(CCCCCCCCCCC(=O)Nc2cnnc(-c3ccccc3)c2)c(=N)cc1C` registered an IC50 in assay [2] of 13000 nM.
On to `Nc1c(-c2n[nH]c(=S)o2)sc2ncc(-c3ccsc3)cc12`, for which the Kd in [15] was determined as 8 nM.

The term IC50 denotes the midpoint of a concentration-inhibition curve. Broadly, the inhibition is the share of the control response that was lost under treatment. As usually defined, the Kd is a measure of binding affinity in units of concentration. The term Ki denotes a measure of affinity in units of concentration, obtained from inhibition or displacement.
